One test deals with UM-UC-3. In words: Cell based assay, cell viability (CellTiter-Glo), UM-UC-3. Particulars: Homo sapiens, UMUC3; 72 hours, 0 to 2 µM; read-out: cell based assay cell line 4 UM-UC-3 IC50. The procedure: (§1) Commercially available bladder cancer cell lines were treated with trypsin-EDTA and seeded in each well of a 96 well plate, followed by incubation for 24 hours. After incubation, candidate compounds were added to each well at a final concentration of 0 to 2 µM. The compound-treated cells were further incubated for 72 hours. Cell viability was measured using an ATP detection method (CellTiter-Glo Luminescent Cell Viability Assay, Promega).
(§2) The selectivity of the compounds of the present disclosure to cancer cells was evaluated in the same manner as described in "2. Cell based assay".

The test system of a further test is 253J. In words: Cell based assay, cell viability (CellTiter-Glo), 253J. Particulars: Homo sapiens; 72 hours, 0 to 2 µM; read-out: cell based assay cell line 3 253J IC50. As to the method: as §1, §2
Another test concerns KU19-19. In words: Cell based assay, cell viability (CellTiter-Glo), KU19-19. Particulars: Homo sapiens, KU-19-19; 72 hours, 0 to 2 µM; read-out: cell based assay cell line 2 KU19-19 IC50. As to the method:
as §1, §2

For the next test, the system named is MBT-2. In words: Cell based assay, cell viability (CellTiter-Glo), MBT-2. Particulars: 72 hours, 0 to 2 µM; read-out: cell based assay cell line 1 MBT-2 IC50. As to the method: as §1, §2
For orientation: In ATP-based viability assays light output follows the ATP content of the culture.

As to `CC(=O)c1c([S+]([O-])Cc2ccc(Cl)cc2)[nH]c2c(Br)ccc(Cl)c2c1=O` (stereo not shown) [Compound 11, 3-acetyl-8-bromo-5-chloro-2-((4-chlorobenzyl)sulfinyl)quinolin-4(1H)-one], the IC50 with UM-UC-3 is 1.49 µM; in the test with 253J, 1.41 µM; with KU19-19, more than 2 µM; in the test on MBT-2, more than 2 µM.
As to `CC(=O)c1c([S+]([O-])c2ccccc2)[nH]c2c(Br)ccc(Cl)c2c1=O` (stereo not shown) [Compound 13, 3-acetyl-8-bromo-5-chloro-2-(phenylsulfinyl)quinolin-4(1H)-one], the IC50 with UM-UC-3, in the test on 253J, in the test on KU19-19 and in the test with MBT-2 was more than 2 µM in each case.
Consider `COc1ccccc1[S+]([O-])c1[nH]c2c(Br)ccc(Cl)c2c(=O)c1C(C)=O` (stereo not shown) [Compound 15, 3-acetyl-8-bromo-5-chloro-2-((2-methoxyphenyl)sulfinyl)quinolin-4(1H)-one], for which the IC50 in the test on UM-UC-3 is more than 2 µM; in the test with 253J, more than 2 µM; in the test with KU19-19, 1.91 µM; in the test on MBT-2 it was more than 2 µM.
For the molecule `CC(=O)c1c([S+]([O-])c2ccc(Br)cc2)[nH]c2c(Br)ccc(Cl)c2c1=O` (stereo not shown) [Compound 17, 3-acetyl-8-bromo-2-((4-bromophenyl)sulfinyl)-5-chloroquinolin-4(1H)-one], the concentration for half-maximal inhibition (IC50) in the test on UM-UC-3, in the test on 253J, in the test with KU19-19 and with MBT-2 was more than 2 µM each time.
As to `CC(=O)c1c([S+]([O-])C(C)c2ccccc2)[nH]c2c(Br)ccc(Cl)c2c1=O` (stereo not shown) [Compound 26, 3-acetyl-8-bromo-5-chloro-2-((1-phenylethyl)sulfinyl)quinolin-4(1H)-one], the IC50 in the test with UM-UC-3, with 253J, in the test on KU19-19 and in the test with MBT-2 was more than 2 µM in each case.
As to `CC(=O)c1c([S+]([O-])Cc2cccc(C#N)c2)[nH]c2c(Br)ccc(Cl)c2c1=O` (stereo not shown) [Compound 28, 3-(((3-acetyl-8-bromo-5-chloro-4-oxo-1,4-dihydroquinolin-2-yl)sulfinyl)methyl)benzonitrile], the concentration for half-maximal inhibition (IC50) with UM-UC-3 came out at 0.79 µM; with 253J, 0.74 µM; in the test on KU19-19, 1.46 µM; with MBT-2, 0.79 µM.
With `CC(=O)c1c([S+]([O-])Cc2ccc(F)cc2F)[nH]c2c(Br)ccc(Cl)c2c1=O` (stereo not shown) [Compound 29, 3-acetyl-8-bromo-5-chloro-2-((2,4-difluorobenzyl)sulfinyl)quinolin-4(1H)-one], the IC50 in the test on UM-UC-3 was determined as 1.13 µM; with 253J it was 0.96 µM; with KU19-19 it was 1.68 µM; in the test with MBT-2, 1.2 µM.
In the case of `CC(=O)c1c([S+]([O-])Cc2ccc(F)c(Cl)c2)[nH]c2c(Br)ccc(Cl)c2c1=O` (stereo not shown) [Compound 31, 3-acetyl-8-bromo-5-chloro-2-((3-chloro-4-fluorobenzyl)sulfinyl)quinolin-4(1H)-one], the concentration for half-maximal inhibition (IC50) in the test with UM-UC-3 was 1.02 µM; with 253J, 0.89 µM; with KU19-19, 1.45 µM; with MBT-2, 1.28 µM.
The corresponding values for `CC(=O)c1c(S(=O)(=O)Cc2ccccc2)[nH]c2c(Br)ccc(Cl)c2c1=O` [Compound 34, 3-acetyl-2-(benzylsulfonyl)-8-bromo-5-chloroquinolin-4(1H)-one] are more than 2 µM, more than 2 µM, more than 2 µM and more than 2 µM.
With `CC(=O)c1c([S+]([O-])Cc2cc(Cl)ccc2Cl)[nH]c2c(Br)ccc(Cl)c2c1=O` (stereo not shown) [Compound 44, 3-acetyl-8-bromo-5-chloro-2-((2,5-dichlorobenzyl)sulfinyl)quinolin-4(1H)-one], the half-maximal inhibitory concentration (IC50) in the test on UM-UC-3 was found to be 0.97 µM; in the test with 253J, 1.24 µM; in the test on KU19-19, 1.27 µM; with MBT-2 it was 1.15 µM.
The corresponding values for `CC(=O)c1c([S+]([O-])Cc2cc(F)cc(F)c2)[nH]c2c(Br)ccc(Cl)c2c1=O` (stereo not shown) [Compound 46, 3-acetyl-8-bromo-5-chloro-2-((3,5-difluorobenzyl)sulfinyl)quinolin-4(1H)-one] are 1.22 µM, 1.96 µM, 1.8 µM and 1.84 µM.
For `CC(=O)c1c([S+]([O-])Cc2cccc(I)c2)[nH]c2c(Br)ccc(Cl)c2c1=O` (stereo not shown) [Compound 48, 3-acetyl-8-bromo-5-chloro-2-((3-iodobenzyl)sulfinyl)quinolin-4(1H)-one], in that order: 1.82 µM, more than 2 µM, more than 2 µM and more than 2 µM.
The corresponding values for `CC(=O)c1c([S+]([O-])Cc2cccc(F)c2)[nH]c2c(Br)ccc(Cl)c2c1=O` (stereo not shown) [Compound 50, 3-acetyl-8-bromo-5-chloro-2-((3-fluorobenzyl)sulfinyl)quinolin-4(1H)-one] are 1.26 µM, 1.43 µM, 1.69 µM and 1.58 µM.
Consider `CC(=O)c1c([S+]([O-])Cc2cc(C)on2)[nH]c2c(Br)ccc(Cl)c2c1=O` (stereo not shown) [Compound 51, 3-acetyl-8-bromo-5-chloro-2-(((5-methylisoxazol-3-yl)methyl)sulfinyl)quinolin-4(1H)-one], for which the 50% inhibitory concentration (IC50) with UM-UC-3 was found to be 0.63 µM; in the test on 253J it was 1.13 µM; in the test with KU19-19 it was 1.26 µM; in the test with MBT-2, 0.76 µM.
For `CC(=O)c1c([S+]([O-])Cc2ccccc2)nc2c(Br)ccc(Cl)c2c1O` (stereo not shown) [Compound 53, 1-(2-(benzylsulfinyl)-8-bromo-5-chloro-4-hydroxyquinolin-3-yl)ethan-1-one], the IC50 in the test on UM-UC-3, with 253J, with KU19-19 and in the test with MBT-2 was more than 2 µM throughout.
As for `COc1cccc(C[S+]([O-])c2[nH]c3c(Br)ccc(Cl)c3c(=O)c2C(C)=O)c1` (stereo not shown) [Compound 55, 3-acetyl-8-bromo-5-chloro-2-((3-methoxybenzyl)sulfinyl)quinolin-4(1H)-one], the IC50 was 1.58 µM in the test on UM-UC-3, 1.33 µM in the test with 253J, 1.38 µM in the test on KU19-19 and more than 2 µM in the test on MBT-2.
For `CC(=O)c1c([S+]([O-])Cc2ccc(SC(F)(F)F)cc2)[nH]c2c(Br)ccc(Cl)c2c1=O` (stereo not shown) [Compound 56, 3-acetyl-8-bromo-5-chloro-2-((4-((trifluoromethyl)thio)benzyl)sulfinyl)quinolin-4(1H)-one], the concentration for half-maximal inhibition (IC50) in the test with UM-UC-3 turned out to be 1.25 µM; in the test with 253J, 1.11 µM; in the test with KU19-19, 0.94 µM; in the test with MBT-2, 1.18 µM.
`CC(=O)c1c([S+]([O-])Cc2ccc([N+](=O)[O-])cc2)[nH]c2c(Cl)ccc(Cl)c2c1=O` (stereo not shown) [Compound 57, 3-acetyl-5,8-dichloro-2-((4-nitrobenzyl)sulfinyl)quinolin-4(1H)-one]: the IC50 is more than 2 µM in the test on UM-UC-3, 1.92 µM in the test with 253J, 1.83 µM with KU19-19 and more than 2 µM in the test on MBT-2.
With `CC(=O)c1c([S+]([O-])Cc2ccccc2C#N)[nH]c2c(Br)ccc(Cl)c2c1=O` (stereo not shown) [Compound 58, 2-(((3-acetyl-8-bromo-5-chloro-4-oxo-1,4-dihydroquinolin-2-yl)sulfinyl)methyl)benzonitrile], the half-maximal inhibitory concentration (IC50) in the test with UM-UC-3 stood at 1.22 µM; with 253J, 0.92 µM; with KU19-19 it was 0.92 µM; in the test with MBT-2, 0.86 µM.
On to `COc1cc(C[S+]([O-])c2[nH]c3c(Br)ccc(Cl)c3c(=O)c2C(C)=O)cc(OC)c1` (stereo not shown) [Compound 59, 3-acetyl-8-bromo-5-chloro-2-((3,5-dimethoxybenzyl)sulfinyl)quinolin-4(1H)-one], for which the half-inhibitory concentration (IC50) with UM-UC-3 was determined as 1.37 µM; with 253J, 1.14 µM; with KU19-19, 1.23 µM; in the test with MBT-2, 1.3 µM.
With `CC(=O)c1c([S+]([O-])Cc2ccc(C(C)(C)C)cc2)[nH]c2c(Br)ccc(Cl)c2c1=O` (stereo not shown) [Compound 60, 3-acetyl-8-bromo-2-((4-(tert-butyl)benzyl)sulfinyl)-5-chloroquinolin-4(1H)-one], the 50% inhibitory concentration (IC50) is more than 2 µM in the test with UM-UC-3, 1.71 µM in the test with 253J, 1.56 µM with KU19-19 and more than 2 µM in the test with MBT-2.
Take `CC(=O)c1c([S+]([O-])Cc2ccc(C(=O)c3ccccc3)cc2)[nH]c2c(Br)ccc(Cl)c2c1=O` (stereo not shown) [Compound 63, 3-acetyl-2-((4-benzoylbenzyl)sulfinyl)-8-bromo-5-chloroquinolin-4(1H)-one]: the IC50 in the test with UM-UC-3, in the test with 253J, in the test on KU19-19 and in the test on MBT-2 was more than 2 µM throughout.
For `CC(=O)c1c([S+]([O-])Cc2ccc([S+]([O-])C(F)(F)F)cc2)[nH]c2c(Br)ccc(Cl)c2c1=O` (stereo not shown) [Compound 64, 3-acetyl-8-bromo-5-chloro-2-((4-((trifluoromethyl)sulfinyl)benzyl)sulfinyl)quin olin-4(1H)-one], the half-maximal inhibitory concentration (IC50) in the test on UM-UC-3 was determined as 1.06 µM; in the test with 253J it was 0.95 µM; in the test with KU19-19 it was 1.41 µM; in the test on MBT-2, 0.84 µM.
The corresponding values for `CC(=O)c1c([S+]([O-])Cc2ccc(C(F)(F)F)cc2)[nH]c2c(Br)ccc(Cl)c2c1=O` (stereo not shown) [Compound 70, 3-acetyl-8-bromo-5-chloro-2-((4-(trifluoromethyl)benzyl)sulfinyl)quinolin-4(1H)-one] are 1.26 µM, 1.04 µM, 1.75 µM and 1.33 µM.
In the case of `CC(=O)c1c([S+]([O-])Cc2ccc(OC(F)(F)F)cc2)[nH]c2c(Br)ccc(Cl)c2c1=O` (stereo not shown) [Compound 71, 3-acetyl-8-bromo-5-chloro-2-((4-(trifluoromethoxy)benzyl)sulfinyl)quinolin-4(1H)-one], the IC50 with UM-UC-3 was determined as 1.61 µM; in the test on 253J, 1.11 µM; in the test on KU19-19 it was 1.6 µM; with MBT-2, 1.47 µM.

One may read the IC50 as the concentration at which inhibition is half-maximal.

The record behind these values is EP3495350B1, “COMPOUND INHIBITING FORMATION OF C-MYC/MAX/DNA COMPLEX” (National Cancer Center, priority 2016, dated 2018).
